From paper PMC12678807, “The free fatty acid receptor GPR164 maintains intestinal homeostasis and barrier function” (EMBO Reports, 2025)

What was measured:
GPR164 (Or51e1, Olfr558) [1] = target: T1, GPR164 (Or51e1, Olfr558) (Mus musculus, UniProt Q8VGZ7); assay: cAMP EIA in Or51e1-overexpressing HEK293 cells, single concentration […]; assay type: cell-based; parameters: HA-tagged Or51e1 in HEK293 cells, co-transfected with RTP1S or RTP4
T1 sequence (Q8VGZ7 1-317): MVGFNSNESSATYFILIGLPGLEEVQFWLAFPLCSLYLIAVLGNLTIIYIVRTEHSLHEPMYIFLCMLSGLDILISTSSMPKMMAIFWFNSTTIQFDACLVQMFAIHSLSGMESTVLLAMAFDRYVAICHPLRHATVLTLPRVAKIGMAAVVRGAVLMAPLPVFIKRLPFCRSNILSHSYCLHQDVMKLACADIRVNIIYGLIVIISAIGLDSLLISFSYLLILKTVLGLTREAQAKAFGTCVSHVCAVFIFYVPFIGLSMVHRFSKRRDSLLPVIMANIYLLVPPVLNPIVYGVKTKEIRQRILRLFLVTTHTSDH

GPR164 (Or51e1, Olfr558) [2] = target: T1, GPR164 (Or51e1, Olfr558); assay: as above; assay type: cell-based; parameters: HA-tagged Or51e1 in HEK293 cells, active only when co-transfected with RTP1S

Compound	intracellular cAMP response (GPR164 (Or51e1, Olfr558) [1])	cAMP EIA in Or51e1-overexpressing HEK293 cells, single concentration 1 mM (GPR164 (Or51e1, Olfr558) [2])
CCCC(=O)O [C4, butyrate]	intracellular cAMP levels were upregulated by the treatment with butyrate or valerate (Fig. 1B)	–
CCCCC(=O)O [C5, valerate]	only SCFAs (butyrate and valerate) activated GPR164 in cells expressing RTP4 (Fig. 1B)	–
CCCCCCCCCC(=O)O [C10, decanoate]	–	GPR164 was activated by the stimulation with butyrate or decanoate when cells were co-transfected with both Or51e1 and RTP1S
